US20070117770A1, “Human ribosomal DNA (rDNA) and ribosomal RNA (rRNA) nucleic acids and uses thereof” (Cylene Pharmaceuticals, Inc., priority 2005, published 2007)

Tests used:
Test in all cases: Protein kinase inhibition assay
Type in all cases: biochemical
[1] = target: ALK4(h) (Homo sapiens, UniProt P36896); conditions: read-out: percent residual activity of ALK4(h)
Description: (§1) Certain compounds were tested for activity in protein kinase inhibition assays. All substrates were dissolved and diluted to working stocks in de-ionized water, apart from histone H1 (10× working stock in 20 mM MOPS pH 7.0), PDKtide (10× working stock in 50 mM Tris pH 7.0) ATF2 (which is typically stored at a 20× working stock in 50 mM Tris pH 7.5, 150 mM NaCl, 0.1 mM EGTA, 0.03% Brij-35, 50% glycerol, 1 mM benzamidine, 0.2 mM PMSF and 0.1% R-mercaptoethanol), KKLNRTLSFAEPG (SEQ ID NO:203) and RRRLSFAEPG (SEQ ID NO:204) (50 mM HEPES pH 7.4) and GGEEEEYFELVKKKK (SEQ ID NO:205) (20 mM MOPS pH 7.0). All kinases were pre-diluted to a 10× working concentration prior to addition into the assay. The composition of the dilution buffer for each kinase is detailed below.
(§2) In a final reaction volume of 25 μl, ALK4 (h) (5-10 mU) is incubated with 8 mM MOPS pH 7.0, 0.2 mM EDTA, 2 mg/ml casein, 10 mM MgAcetate and [gamma-33P-ATP] (specific activity approx. 500 cpm/pmol, concentration as required). The reaction is initiated by the addition of the MgATP mix. After incubation for 40 minutes at room temperature, the reaction is stopped by the addition of 5 μl of a 3% phosphoric acid solution. 10 μl of the reaction is then spotted onto a P30 filtermat and washed three times for 5 minutes in 75 mM phosphoric acid and once in methanol prior to drying and scintillation counting.

[2] = target: CaMKIV(h) (Homo sapiens, UniProt Q16566); conditions: read-out: percent residual activity of CaMKIV(h)
Description: as §1
(§3) In a final reaction volume of 25 μl, CaMKIV (h) (5-10 mU) is incubated with 40 mM HEPES pH 7.4, 5 mM CaCl2, 30 μg/ml calmodulin, 30 μM KKLNRTLSVA (SEQ ID NO:212), 10 mM MgAcetate and [gamma-33P-ATP] (specific activity approx. 500 cpm/pmol, concentration as required). The reaction is initiated by the addition of the MgATP mix. After incubation for 40 minutes at room temperature, the reaction is stopped by the addition of 5 μl of a 3% phosphoric acid solution. […]

[3] = target: cKit(D816V)(h) (Homo sapiens, UniProt P10721, D816V); conditions: read-out: percent residual activity of cKit(D816V)(h)
Description: as §1
as §3, with “μl, cKit (D816V)” for “μl, CaMKIV”, “with 8” for “with 40”, “mM MOPS” for “mM HEPES”, “pH 7.0, 0.2” for “pH 7.4, 5”, “mM EDTA, 10 mM MnCl2, 0.1 mg/ml poly(Glu, Tyr) 4:1,” for “mM CaCl2, 30 μg/ml calmodulin, 30 μM KKLNRTLSVA (SEQ ID NO:212),”

[4] = target: EphA4(h) (Homo sapiens, UniProt P54764); conditions: read-out: percent residual activity of EphA4(h)
Description: as §1
as §2, with “μl, EphA4” for “μl, ALK4”, “EDTA, 10 mM MnCl2, 0.1” for “EDTA, 2”, “mg/ml poly(Glu, Tyr) 4:1,” for “mg/ml casein,”, “and [y-33P-ATP]” for “and [gamma-33P-ATP]”, “a Filtermat A” for “a P30 filtermat”

[5] = target: PKA(h) (Homo sapiens, UniProt P17612); conditions: read-out: percent residual activity of PKA(h)
Description: as §1
as §2, with “PKA” for “ALK4”, “30 μM LRRASLG (SEQ ID NO:209) (Kemptide),” for “2 mg/ml casein,”, “[y-33P-ATP]” for “[gamma-33P-ATP]”, “50” for “75”

[6] = target: PKCα(h) (Homo sapiens, UniProt P17252); conditions: read-out: percent residual activity of PKCα(h)
Description: as §1
as §3, with “μl, PKCα” for “μl, CaMKIV”, “with 20” for “with 40”, “7.4, 0.03% Triton X-100, […], 0.1 mg/ml phosphatidylserine, 10” for “7.4, 5 mM CaCl2, 30”, “μg/ml diacylglycerol, 0.1 mg/ml histone H1,” for “μg/ml calmodulin, 30 μM KKLNRTLSVA (SEQ ID NO:212),”

Chain of ALK4(h) (P36896 24-505): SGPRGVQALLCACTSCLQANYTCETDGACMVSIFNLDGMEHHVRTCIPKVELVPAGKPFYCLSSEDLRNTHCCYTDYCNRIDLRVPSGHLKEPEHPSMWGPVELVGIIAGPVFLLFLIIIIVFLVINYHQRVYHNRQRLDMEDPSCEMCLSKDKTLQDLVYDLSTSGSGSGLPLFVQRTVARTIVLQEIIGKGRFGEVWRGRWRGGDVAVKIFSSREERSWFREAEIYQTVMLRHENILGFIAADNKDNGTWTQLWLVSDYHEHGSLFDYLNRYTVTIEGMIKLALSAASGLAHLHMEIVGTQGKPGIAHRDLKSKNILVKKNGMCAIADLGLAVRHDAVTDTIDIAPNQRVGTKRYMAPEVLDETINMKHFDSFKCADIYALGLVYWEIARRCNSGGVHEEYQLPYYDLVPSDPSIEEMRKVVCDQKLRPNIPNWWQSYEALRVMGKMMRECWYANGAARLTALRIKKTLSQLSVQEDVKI
Chain of EphA4(h) (P54764 20-986): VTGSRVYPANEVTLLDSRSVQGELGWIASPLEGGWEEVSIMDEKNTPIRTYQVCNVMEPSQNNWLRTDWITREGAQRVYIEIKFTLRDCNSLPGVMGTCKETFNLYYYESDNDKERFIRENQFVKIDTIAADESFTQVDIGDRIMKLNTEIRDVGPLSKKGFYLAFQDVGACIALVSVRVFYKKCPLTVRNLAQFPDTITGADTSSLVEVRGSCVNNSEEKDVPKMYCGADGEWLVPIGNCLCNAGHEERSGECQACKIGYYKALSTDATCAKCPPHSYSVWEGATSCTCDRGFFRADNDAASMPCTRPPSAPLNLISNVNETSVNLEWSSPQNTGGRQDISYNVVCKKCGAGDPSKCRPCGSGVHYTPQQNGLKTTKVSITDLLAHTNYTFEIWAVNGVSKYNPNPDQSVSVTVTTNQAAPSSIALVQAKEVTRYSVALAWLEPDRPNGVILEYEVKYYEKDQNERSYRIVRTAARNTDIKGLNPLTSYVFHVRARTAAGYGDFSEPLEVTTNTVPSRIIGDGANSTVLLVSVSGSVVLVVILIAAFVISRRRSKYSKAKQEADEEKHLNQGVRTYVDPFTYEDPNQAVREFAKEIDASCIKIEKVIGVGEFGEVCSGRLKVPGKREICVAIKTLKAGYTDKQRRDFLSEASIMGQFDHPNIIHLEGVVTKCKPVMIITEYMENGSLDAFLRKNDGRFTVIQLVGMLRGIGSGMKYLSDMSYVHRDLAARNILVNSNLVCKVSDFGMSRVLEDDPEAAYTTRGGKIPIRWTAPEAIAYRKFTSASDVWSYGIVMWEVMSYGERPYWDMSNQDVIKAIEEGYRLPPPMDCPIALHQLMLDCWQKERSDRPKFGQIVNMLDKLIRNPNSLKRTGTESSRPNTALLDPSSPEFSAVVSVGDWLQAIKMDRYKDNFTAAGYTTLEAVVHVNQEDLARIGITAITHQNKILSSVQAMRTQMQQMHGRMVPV
Chain of cKit(D816V)(h) (P10721 26-976 D816V): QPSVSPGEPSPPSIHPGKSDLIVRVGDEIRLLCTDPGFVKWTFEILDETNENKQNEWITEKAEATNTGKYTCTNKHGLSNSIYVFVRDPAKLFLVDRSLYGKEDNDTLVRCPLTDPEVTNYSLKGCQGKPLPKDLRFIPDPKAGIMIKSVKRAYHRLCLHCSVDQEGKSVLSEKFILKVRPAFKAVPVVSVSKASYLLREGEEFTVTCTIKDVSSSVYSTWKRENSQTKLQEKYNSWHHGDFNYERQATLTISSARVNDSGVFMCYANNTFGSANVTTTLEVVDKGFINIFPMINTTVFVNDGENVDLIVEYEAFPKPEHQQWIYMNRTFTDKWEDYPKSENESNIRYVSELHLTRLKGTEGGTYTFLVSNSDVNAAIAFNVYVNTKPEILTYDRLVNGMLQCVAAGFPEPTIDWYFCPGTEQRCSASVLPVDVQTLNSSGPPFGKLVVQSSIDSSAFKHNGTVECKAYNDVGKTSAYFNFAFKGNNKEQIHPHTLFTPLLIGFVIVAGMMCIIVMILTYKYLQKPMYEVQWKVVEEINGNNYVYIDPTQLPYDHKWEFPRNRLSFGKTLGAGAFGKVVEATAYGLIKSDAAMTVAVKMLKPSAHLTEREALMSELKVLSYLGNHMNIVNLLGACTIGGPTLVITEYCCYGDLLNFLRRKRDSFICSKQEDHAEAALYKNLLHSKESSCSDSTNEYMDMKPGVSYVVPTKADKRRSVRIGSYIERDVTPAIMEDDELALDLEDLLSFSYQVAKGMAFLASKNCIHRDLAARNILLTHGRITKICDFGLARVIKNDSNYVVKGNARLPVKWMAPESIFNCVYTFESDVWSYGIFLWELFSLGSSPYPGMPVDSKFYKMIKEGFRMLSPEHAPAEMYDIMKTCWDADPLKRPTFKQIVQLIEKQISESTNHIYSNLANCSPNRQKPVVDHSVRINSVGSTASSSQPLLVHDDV

Compound	remaining activity at 2.5 µM [1] [%]	remaining activity at 2.5 µM [2] [%]	remaining activity at 2.5 µM [3] [%]	remaining activity at 2.5 µM [4] [%]	remaining activity at 2.5 µM [5] [%]	remaining activity at 2.5 µM [6] [%]
CN1CCCC1CCNC(=O)c1cn2c3c(c(N4CCC(c5cnccn5)C4)c(F)cc3c1=O)Oc1cc3ccccc3cc1-2 (stereo not drawn) [Compound A-1]	108	124	104	107	105	90
CC(=O)N1CCN(c2ccc3c(=O)c(C(=O)NCCN4CCCC4)c4n(C)c5ccccc5n4c3n2)CC1 [Compound B-1]	103	122	103	134	97	101
